For assay [1], the system named is wounds post implant placement (oral lesion). Nature of the assay: Mucosal soft tissue healing in patients post implant placement applying dry CGP (PerioCell), small uncontrolled study. Format: in vivo, human. As for the experimental part: Methods according to embodiments of the present invention have been applied to multiple patients post implant placement. The age range of implant patients was 30-65 years. All patients had wound closure with 4-0 silk suture with interrupted knots unless otherwise noted. The patients were instructed to apply dry CGP that has less than 5% moisture in 150 micron granulate (PerioCell™, AkPharma Inc., Pleasantville, N.J. 08232) to the wounds three times daily, approximately 4 hours apart, for the first three days succeeding surgery. Mucosal soft tissue healing was observed and studied in these patients. Patient's compliance with the use instructions for CGP was reported by the patient at the post-operational visit (post-op) and was rated as Excellent, Good, Fair or Poor. In most, but not all cases, patients were reasonably compliant.

For assay [2], the system named is gum wounds after tooth extraction (oral lesion). Briefly: CGP powder applied to the gum wound after tooth extraction (single human subject). Format: in vivo. Here is the method: A tooth was removed from a human, subject and normal packing was applied. There were five (5) stitches put in. Approximately 2 hours after the extraction, the human subject lightly rinsed their mouth and applied powdered CGP granulate of approximately 150 micron size granules directly to the gum and allowed the powder to become wet. Sufficient CGP powder was applied to form a light plaster coating over the wound. This was repeated approximately 6 hours later, before retiring that night, and again the next morning. In all cases, the CGP remained intact and in a cohesive mass on the gum for 15 minutes or more, after which time it slowly dissolved or dispersed and was safely swallowed. At no time during the post-extraction period was there swelling or pain. […] Rapid healing of the gum wounds was observed by a periodontist at the normal stitch-removal visit, 7 days subsequent to tooth removal. The gums had fully closed and were normal pink color in about one week. The periodontist commented that in their 15 years of practice, they had never seen this quality of healing at this speed.

In assay [3] the test system is rhino mucosal passage inflammation. Briefly: Observation of low concentrations of CGP on rhino mucosal passage inflammation. The note with it: CGP between 1% and 2% by weight. Format: in vivo.

Entries after “also recorded” stand apart in the source; their conditions may differ.

One substance from US20100305071A1, “METHODS FOR IMPROVING HEALING OF AN ORAL LESION USING A GLYCEROPHOSPHATE SALT” (PRELIEF INC., priority 2007, published 2010) can be followed below.

As for calcium glycerophosphate [CGP], the “correlation between good and excellent compliance with use instructions for CGP and little to no tissue gapping and good wound healing” value in assay [1] (all implant patients) was “definite correlation”. Also, the “erythema at the wound margin at first post-op visit” value in assay [1] (one week post-op (2 weeks for patient 018), one patient per block) is “very little erythema or edema; also recorded: very little gingival erythema; also recorded: localized mild erythema; also recorded: little to no marginal erythema; also recorded: almost no erythema; also recorded: mild mesial inflammation; also recorded: Mild left side erythema and more moderate right side marginal erythema; also recorded: Mild to moderate marginal erythema”. For the same substance, the “wound closure / tissue approximation at first post-op visit, noted by periodontist” value in assay [1] (one week post-op (2 weeks for patient 018), one patient per block, CGP three times daily for first three days, compliance varies by patient) is “excellent tissue approximation; also recorded: good tissue approximation; also recorded: beautiful wound approximation; also recorded: perfect wound margin approximation; also recorded: moderate tissue gaps in the left side; also recorded: wound margins came together very well with no gaps; also recorded: greater than 50% gapping of the margins; also recorded: great wound approximation with no gaps; also recorded: great wound approximation; also recorded: slight tissue gap at the mesial aspect; also recorded: no gaps seen; also recorded: excellent wound approximation and perfect closure; also recorded: great heal; also recorded: Wound closure was better in the mandible than in the maxilla; also recorded: Wound closure looked great with no gaps; also recorded: moderate gap at wound margin; also recorded: mild gap at the wound margin; also recorded: good wound approximation; also recorded: better healing on the left side than on the right; also recorded: slight gap at the wound margin; also recorded: rolled wound borders with slight gapping across”. For the same substance, the “healing / closure at later post-op visit” value in assay [1] (three weeks to one month post-op, one patient per block) is reported as “completely healed; also recorded: complete heal; also recorded: healing was complete; also recorded: things looked better; also recorded: perfectly closed wound; also recorded: implant was removed; also recorded: perfect tissue approximation; also recorded: perfect wound approximation; also recorded: excellent healing; also recorded: perfect closure; also recorded: good approximation; also recorded: all looked great; also recorded: complete closure; also recorded: good closure; also recorded: wound margin looked good; also recorded: wound margins were completely approximated; also recorded: excellent heal; also recorded: perfect heal on the left side”. The “healing of the gum wounds observed by periodontist at stitch-removal visit” value in assay [2] (7 days subsequent to tooth removal) is listed as “Rapid healing”. Moreover, in assay [2] (CGP applied about 2 h and 8 h after extraction and next morning), the “swelling or pain during the post-extraction period” value is reported as “At no time”. Besides, in assay [2] (after the extraction), the “time until gums were normal pink color (self-observation via mirror)” value was in the range of 36 to 48 h. Moreover, the “effect on apparent rhino mucosal passage inflammation” value in assay [3] was “favorably affect”.
